Numbers after ± are expanded uncertainties.
Assay: molar heat capacity at constant pressure; xn = mol fraction of the nth substance listed
Conditions: 100 kPa, Liquid, Small sample (50 mg) DSC

O=C(O)C(=O)O [ethanedioic acid] + C[N+](C)(C)CCO.[Cl-]
x2 = 0.33
Conditions | molar heat capacity at constant pressure [J/K/mol]
298.15 K | 270.8 ± 6.6
300.65 K | 271.8 ± 6.7
303.15 K | 272.1 ± 6.7
305.65 K | 272.7 ± 6.7
308.15 K | 273.6 ± 6.7
310.65 K | 274.6 ± 6.7
313.15 K | 275.4 ± 6.7
315.65 K | 276.3 ± 6.8
318.15 K | 276.8 ± 6.8
320.65 K | 277 ± 6.8
323.15 K | 277.1 ± 6.8
325.65 K | 277.4 ± 6.8
328.15 K | 277.8 ± 6.8
330.65 K | 278.3 ± 6.8
333.15 K | 278.7 ± 6.8
335.65 K | 279.6 ± 6.8
338.15 K | 280 ± 6.9
340.65 K | 280.6 ± 6.9
343.15 K | 281.2 ± 6.9
345.65 K | 281.7 ± 6.9
348.15 K | 281.9 ± 6.9
350.65 K | 282.2 ± 6.9
353.15 K | 282.9 ± 6.9

C[P+](c1ccccc1)(c1ccccc1)c1ccccc1.[Br-] [methyltriphenylphosphonium bromide] + O=C(O)CC(=O)O
x1 = 0.4
Conditions | molar heat capacity at constant pressure [J/K/mol]
298.15 K | 336.9 ± 8.3
300.65 K | 338 ± 8.3
303.15 K | 339.2 ± 8.3
305.65 K | 340 ± 8.3
308.15 K | 341 ± 8.4
310.65 K | 342.1 ± 8.4
313.15 K | 343.1 ± 8.4
315.65 K | 343.9 ± 8.4
318.15 K | 345.2 ± 8.5
320.65 K | 346 ± 8.5
323.15 K | 346.6 ± 8.5
325.65 K | 347.4 ± 8.5
328.15 K | 348.4 ± 8.5
330.65 K | 350.1 ± 8.6
333.15 K | 350.3 ± 8.6
335.65 K | 350.7 ± 8.6
338.15 K | 351.3 ± 8.6
340.65 K | 351.5 ± 8.6
343.15 K | 351.9 ± 8.6
345.65 K | 352.1 ± 8.6
348.15 K | 352.5 ± 8.6
350.65 K | 354 ± 8.7
353.15 K | 354.2 ± 8.7

C[P+](c1ccccc1)(c1ccccc1)c1ccccc1.[Br-] [methyltriphenylphosphonium bromide] + OCC(O)CO
x1 = 0.25
Conditions | molar heat capacity at constant pressure [J/K/mol]
298.15 K | 328.5 ± 8
300.65 K | 329.6 ± 8.1
303.15 K | 330.5 ± 8.1
305.65 K | 331.6 ± 8.1
308.15 K | 332.7 ± 8.2
310.65 K | 333.7 ± 8.2
313.15 K | 334.8 ± 8.2
315.65 K | 335.8 ± 8.2
318.15 K | 336.5 ± 8.2
320.65 K | 338.1 ± 8.3
323.15 K | 339.4 ± 8.3
325.65 K | 339.6 ± 8.3
328.15 K | 340.8 ± 8.3
330.65 K | 341.8 ± 8.4
333.15 K | 342.6 ± 8.4
335.65 K | 343.5 ± 8.4
338.15 K | 344.6 ± 8.4
340.65 K | 345.7 ± 8.5
343.15 K | 346.7 ± 8.5
345.65 K | 347.8 ± 8.5
348.15 K | 347.9 ± 8.5
350.65 K | 348.3 ± 8.5
353.15 K | 350.2 ± 8.6

C[P+](c1ccccc1)(c1ccccc1)c1ccccc1.[Br-] [methyltriphenylphosphonium bromide] + OCCO
x1 = 0.2
Conditions | molar heat capacity at constant pressure [J/K/mol]
298.15 K | 237.6 ± 5.8
300.65 K | 238.6 ± 5.8
303.15 K | 239.4 ± 5.9
305.65 K | 240.8 ± 5.9
308.15 K | 241.6 ± 5.9
310.65 K | 242.4 ± 5.9
313.15 K | 243.4 ± 6
315.65 K | 244.5 ± 6
318.15 K | 245.2 ± 6
320.65 K | 246.1 ± 6
323.15 K | 247.2 ± 6.1
325.65 K | 247.9 ± 6.1
328.15 K | 248.9 ± 6.1
330.65 K | 249.8 ± 6.1
333.15 K | 250.8 ± 6.1
335.65 K | 251.8 ± 6.2
338.15 K | 252.7 ± 6.2
340.65 K | 253.5 ± 6.2
343.15 K | 254.3 ± 6.2
345.65 K | 255 ± 6.2
348.15 K | 255.5 ± 6.3
350.65 K | 255 ± 6.2
353.15 K | 256.7 ± 6.3

O=C(O)CC(=O)O [propanedioic acid] + CCCC[N+](CCCC)(CCCC)CCCC.[Cl-]
x2 = 0.25
Conditions | molar heat capacity at constant pressure [J/K/mol]
298.2 K | 299.8 ± 7.4
300.7 K | 302.6 ± 7.4
303.2 K | 305.7 ± 7.5
305.7 K | 309.4 ± 7.6
308.2 K | 313.3 ± 7.7
310.7 K | 316.9 ± 7.8
313.2 K | 320.6 ± 7.9
315.7 K | 323.7 ± 7.9
318.2 K | 324.9 ± 8
320.7 K | 328.8 ± 8.1
323.2 K | 333.3 ± 8.2
325.7 K | 335.9 ± 8.2
328.2 K | 337.5 ± 8.3
330.7 K | 339.2 ± 8.3
333.2 K | 339.5 ± 8.3
335.7 K | 340 ± 8.3
338.2 K | 340.2 ± 8.3
340.7 K | 340.6 ± 8.3
343.2 K | 341.1 ± 8.4
345.7 K | 341.2 ± 8.4
348.2 K | 341.7 ± 8.4
350.7 K | 342 ± 8.4
353.2 K | 342.8 ± 8.4

O=C(O)CC(=O)O [propanedioic acid] + C[N+](C)(C)CCO.[Cl-]
x2 = 0.5
Conditions | molar heat capacity at constant pressure [J/K/mol]
298.15 K | 226.9 ± 5.6
300.65 K | 227.6 ± 5.6
303.15 K | 228.3 ± 5.6
305.65 K | 228.8 ± 5.6
308.15 K | 229.4 ± 5.6
310.65 K | 230.2 ± 5.6
313.15 K | 230.6 ± 5.6
315.65 K | 231.1 ± 5.7
318.15 K | 231.7 ± 5.7
320.65 K | 232.3 ± 5.7
323.15 K | 232.7 ± 5.7
325.65 K | 233.2 ± 5.7
328.15 K | 233.8 ± 5.7
330.65 K | 234.3 ± 5.7
333.15 K | 234.9 ± 5.8
335.65 K | 235.8 ± 5.8
338.15 K | 237 ± 5.8
340.65 K | 238 ± 5.8
343.15 K | 238.4 ± 5.8
345.65 K | 238.9 ± 5.9
348.15 K | 239.5 ± 5.9
350.65 K | 239.9 ± 5.9
353.15 K | 240.8 ± 5.9

CCCC[N+](CCCC)(CCCC)CCCC.[Cl-] [tetrabutylammonium chloride] + NC(N)=O
x1 = 0.8
Conditions | molar heat capacity at constant pressure [J/K/mol]
308.2 K | 590 ± 14
310.7 K | 593 ± 14
313.2 K | 598 ± 15
315.7 K | 601.2 ± 15
318.2 K | 602.6 ± 15
320.7 K | 600.6 ± 15
323.2 K | 601.5 ± 15
325.7 K | 602.9 ± 15
328.2 K | 601.7 ± 15
330.7 K | 603 ± 15
333.2 K | 604.9 ± 15
335.7 K | 605.1 ± 15
338.2 K | 603.2 ± 15
340.7 K | 604 ± 15
343.2 K | 604.4 ± 15
345.7 K | 605.2 ± 15
348.2 K | 604.8 ± 15
350.7 K | 605.4 ± 15
353.2 K | 605.9 ± 15

CCCC[N+](CCCC)(CCCC)CCCC.[Cl-] [tetrabutylammonium chloride] + OCC(O)CO
x1 = 0.17
Conditions | molar heat capacity at constant pressure [J/K/mol]
298.2 K | 281.2 ± 6.9
300.7 K | 282.5 ± 6.9
303.2 K | 283.9 ± 7
305.7 K | 285.4 ± 7
308.2 K | 286.9 ± 7
310.7 K | 288.1 ± 7.1
313.2 K | 289.4 ± 7.1
315.7 K | 290.7 ± 7.1
318.2 K | 292 ± 7.2
320.7 K | 293.4 ± 7.2
323.2 K | 294.5 ± 7.2
325.7 K | 296.1 ± 7.3
328.2 K | 297.4 ± 7.3
330.7 K | 298.9 ± 7.3
333.2 K | 300.4 ± 7.4
335.7 K | 301.9 ± 7.4
338.2 K | 303.2 ± 7.4
340.7 K | 304.6 ± 7.5
343.2 K | 305.7 ± 7.5
345.7 K | 306.9 ± 7.5
348.2 K | 307.8 ± 7.5
350.7 K | 308.6 ± 7.6
353.2 K | 310.9 ± 7.6

Reference: the NIST ThermoML archive (doi:10.1021/acs.jced.5b00989)
